“Also recorded” adds a separate entry of the source.
Key:
[1] = system: Cebpα-luc; experiment: Luciferase reporter assay in HEK293 cells; assay type: cell-based; conditions: HEK293, 0.1, 1 or 10 μM for 48 hours, vs DMSO
Text: (§1) The plasmids pGL3-Cebpα promoter-luc and pGL3-Mitf1 promoter-luc were provided by Dr. Hua Huang (University of Colorado school, Denver, USA). The plasmid NF-κB-luc was purchased from Agilent Technologies (Santa Clara, Calif.). The GATA-responsive reporter vector was provided by Dr. Ishijima (Takasaki University of Health and welfare, Gunma, Japan). Three GATA motifs from mouse α-1 globulin gene (5′-TGATAA-3′) were tandemly inserted into Sma I site of pRBGP3. HDC promoter was provided by Dr. Ootsu (Tohoku University school of Medicine, Sendai, Japan) and cloned into Kpn I-Hind III site of pGL4.10 (Hdc promoter-luc). The reporter assay was performed according to the method described in Kanatani, N. et al. Briefly, HEK293 cells were transfected with each of the luciferase constructs (0.2 μg) or pRL-CMV (Promega, Madison, Wis.) (0.001 μg). At 3 hours after transfection, the cells were treated with fucoxanthin (0.1 μM, 1 μM or 10 μM) or DMSO for 48 hours and reporter assay was performed using Dual-Luciferase® Reporter Assay System (Promega). Luciferase activity was measured using luminometer model TD20/20n (Turner BioSystems, Sunnyvale, Calif.) and normalized to Renilla luciferase activity expressed by CMV promoter.

[2] = system: NF-κB-luc; experiment: Luciferase reporter assay in HEK293 cells; assay type: cell-based; conditions: HEK293, 0.1, 1 or 10 μM for 48 hours, vs DMSO
Text: as §1

[3] = system: Hdc-luc; experiment: Luciferase reporter assay in HEK293 cells; assay type: cell-based; conditions: HEK293, 0.1, 1 or 10 μM for 48 hours, vs DMSO
Text: as §1

[4] = system: Mitf1-luc; experiment: Luciferase reporter assay in HEK293 cells; assay type: cell-based; conditions: HEK293, 0.1, 1 or 10 μM for 48 hours, vs DMSO
Text: as §1

[5] = system: filaggrin (Flg); experiment: Immunohistochemical analysis of skin of NC/Nga mice; assay type: in vivo; conditions: topical treatment for 5 weeks, vs Vaseline
Experimental: (§2) Vaseline or fucoxanthin and PiCl were applied to the mice in the same manner as described in Example 2. At 5 weeks after starting application of Vaseline or fucoxanthin, the mice were sacrificed the mice skins were fixed with 4% paraformaldehyde and analyzed according to the method described in Kosaka, T. et al. (supra). The skin section (10 μm thick) was analyzed immunohistochemically using a rabbit anti-filaggrin antibody (Santa Cruz Biotechnology, Inc.) and a rabbit anti-loricrin antibody (Covance). Then, the sample was reacted with an FITC-conjugated anti-rabbit IgG IgG (Santa Cruz Biotechnology, Inc.).

[6] = system: loricrin (Lor); experiment: as above; assay type: in vivo; conditions: topical treatment for 5 weeks, vs Vaseline
Experimental: as §2

[7] = system: NC/Nga mice; experiment: Clinical symptoms of dermatitis in PiCl-sensitized NC/Nga mice; assay type: in vivo; conditions: topical application plus PiCl, at 5 weeks
Experimental: Next, we examined the effects of fucoxanthin and astaxanthin on clinical symptoms of dermatitis in NC/Nga mice. In the same manner as described in Example 2, fucoxanthin or astaxanthin and PiCl were applied to NC/Nga mice. […] In the same manner as described in Example 2, Vaseline, fucoxanthin or tacrolimus and PiCl were applied to NC/Nga mice. […] Also, serum IgE levels and swelling of the auricular lymph nodes of the mice were determined in the same manner as described in Example 2.

[8] = system: NC/Nga mice; experiment: Serum IgE content by ELISA in NC/Nga mice; assay type: in vivo; conditions: topical application for 5 weeks, PiCl-sensitized, vs Vaseline
Text: NC/Nga mice (5 weeks old, female) were purchased from Japan SLC, Inc. […] On day 12, day 19, day 26 and day 33 after starting application of Vaseline or fucoxanthin, 0.8% picryl chloride (PiCl) was further applied to the back skin of the mice. The behaviors of the mice were observed by video monitoring. On day 34 after starting application of Vaseline or fucoxanthin, bromodeoxyuridine (BrdU, Nacalai Tesque) (0.[…] weight) was intraperitoneally administered to the mice. At 5 weeks after starting application of Vaseline or fucoxanthin, the time each mouse spent for scratching behavior in 10 minutes was measured by video monitoring. Then, the mice were sacrificed and the auricular lymph node, blood and skin were obtained. Serum IgE content was determined by enzyme-linked immunosorbent assay (ELISA) using Mouse IgE Assay Kit (Morinaga Institute of Biological Science, Inc.). […] BrdU uptake was determined by ELISA using Cell Proliferation ELISA, BrdU (Colorimetric) (Roche Diagnostics K.K.). […] Also, serum IgE levels and swelling of the auricular lymph nodes of the mice were determined in the same manner as described in Example 2.

[9] = system: Mitf1; experiment: Real time PCR gene expression in bone marrow cells cultured with IL-3; assay type: cell-based, mice; conditions: 10 μM added day 0, cultured 1-4 weeks, vs DMSO
Experimental: (§3) Bone marrow cells obtained from 8-week-old female mice was cultured in a medium for conditioning containing IL-3. On the day the bone marrow cells were obtained (day 0), 10 μM fucoxanthin or dimethyl sulfoxide (DMSO) as a control was added to the culture solution and the cells were cultured for 1, 2, 3 or 4 weeks. Quantitative real time PCR was performed according to the method described in Kosaka et al. (supra). Five different cDNA pool dilutions were used for the experiments. The expression levels of PCR products were normalized to that of a housekeeping gene, GAPDH or β-actin, and the measured values were compared with cycle threshold value (Ct value). The primers used are shown below.
(§4) The housekeeping genes GAPDH and β-actin were used for normalization as internal standards. All measurements were performed 4 times.

[10] = system: PU.1; experiment: as above; assay type: cell-based, mice; conditions: 10 μM added day 0, cultured 1-4 weeks, vs DMSO
Experimental: as §3, §4

[11] = system: NC/Nga mice; experiment: BrdU uptake in auricular lymph node cells of NC/Nga mice (ELISA); assay type: in vivo; conditions: topical application for 5 weeks, BrdU i.p. on day 34, vs Vaseline
Text: On day 12, day 19, day 26 and day 33 after starting application of Vaseline or fucoxanthin, 0.8% picryl chloride (PiCl) was further applied to the back skin of the mice. The behaviors of the mice were observed by video monitoring. On day 34 after starting application of Vaseline or fucoxanthin, bromodeoxyuridine (BrdU, Nacalai Tesque) ([…]) was intraperitoneally administered to the mice. At 5 weeks after starting application of Vaseline or fucoxanthin, the time each mouse spent for scratching behavior in 10 minutes was measured by video monitoring. Then, the mice were sacrificed and the auricular lymph node, blood and skin were obtained. Serum IgE content was determined by enzyme-linked immunosorbent assay (ELISA) using Mouse IgE Assay Kit (Morinaga Institute of Biological Science, Inc.). The auricular lymph node was digested with 0.1% trypsin/0.1% collagenase, the obtained dissociated cells were suspended by pipetting, and the enzyme reaction was stopped by adding Dulbecco's modified Eagle medium (DMEM) containing 10% fetal bovine serum (Wako Pure Chemical Industries, Ltd.). BrdU uptake was determined by ELISA using Cell Proliferation ELISA, BrdU (Colorimetric) (Roche Diagnostics K.K.).

Structure (SMILES): CC(=O)O[C@H]1CC(C)(C)C(=C=C/C(C)=C/C=C/C(C)=C/C=C/C=C(C)/C=C/C=C(\C)C(=O)C[C@@]23O[C@]2(C)C[C@@H](O)CC3(C)C)[C@](C)(O)C1 [fucoxanthin]
- Cebpα-luc reporter activity [1]: not regulated
- NF-κB activity (NFκB-luc) [2]: not affected
- Hdc-luc reporter activity [3]: not regulated
- Mitf1-luc reporter activity [4]: not regulated
- filaggrin expression in the epidermis (immunohistochemistry) [5]: elevated; also recorded: abundantly localized in the stratum corneum
- loricrin expression in the epidermis (immunohistochemistry) [6]: elevated; also recorded: distributed in the whole skin
- clinical symptoms of dermatitis (AD symptoms) [7]: remarkably improved; also recorded: almost completely did; also recorded: ameliorated clinical symptom of dermatitis
- serum IgE level [8]: neither ear swelling (FIG. 9A) nor serum IgE level (FIG. 9B) were affected; also recorded: did not vary
- expression of Mitf1 [9]: did not change significantly
- expression of PU.1 [10]: did not change significantly
- BrdU uptake (cell proliferation in the auricular lymph node) [11]: not affected
